Data: ChEMBL document CHEMBL5055643, “Sophoraflavanone G Resensitizes ABCG2-Overexpressing Multidrug-Resistant Non-Small-Cell Lung Cancer Cells to Chemotherapeutic Drugs” (J Nat Prod, 2021)

Legend:
HEK293 [1] = assay: Chemo-sensitizing activity against human HEK293 cells assessed as reversal fold at 1 uM measured after 72 hrs in presence of mitoxatrone by CCK8 assay relative to control; format: functional
HEK293 [2] = assay: Chemo-sensitizing activity against human HEK293 cells assessed as reversal fold at 1 uM measured after 72 hrs in presence of vincristine by CCK8 assay relative to control; format: functional
[3] = biological target: T1, Broad substrate specificity ATP-binding cassette transporter ABCG2 (Homo sapiens, UniProt Q9UNQ0); assay: Inhibition of ABCG2 in mitoxantrone-selected ABCG2-overexpressing human NCI-H460/MX20 cells assessed as increase in intracellular mitoxantrone accumulation incubated for 1 hr in presence of mitoxantrone by flow cytometry; format: cell-based
T1 sequence (Q9UNQ0 whole entry): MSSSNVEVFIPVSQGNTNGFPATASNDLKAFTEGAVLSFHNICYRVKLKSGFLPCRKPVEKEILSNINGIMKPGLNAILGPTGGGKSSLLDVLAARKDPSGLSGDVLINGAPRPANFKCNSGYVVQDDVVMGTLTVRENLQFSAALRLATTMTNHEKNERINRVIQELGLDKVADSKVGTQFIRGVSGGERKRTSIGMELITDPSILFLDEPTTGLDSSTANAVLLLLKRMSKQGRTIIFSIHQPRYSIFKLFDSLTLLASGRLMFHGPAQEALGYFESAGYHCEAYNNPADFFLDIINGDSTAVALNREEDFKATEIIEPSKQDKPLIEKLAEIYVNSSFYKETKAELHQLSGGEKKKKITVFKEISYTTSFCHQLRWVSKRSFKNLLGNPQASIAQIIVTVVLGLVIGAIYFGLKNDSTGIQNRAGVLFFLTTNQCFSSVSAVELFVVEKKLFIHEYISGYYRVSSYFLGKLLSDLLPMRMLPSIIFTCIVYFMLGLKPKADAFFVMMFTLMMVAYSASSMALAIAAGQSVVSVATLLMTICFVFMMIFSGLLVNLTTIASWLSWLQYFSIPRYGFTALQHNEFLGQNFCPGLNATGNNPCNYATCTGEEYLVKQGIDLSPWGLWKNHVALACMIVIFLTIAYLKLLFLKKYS

OVCAR-8 [4] = assay: Chemo-sensitizing activity against human OVCAR-8 cells assessed as reversal fold at 1 uM measured after 72 hrs in presence of paclitaxel by CCK8 assay relative to control; format: functional
KB 3-1 [5] = assay: Chemo-sensitizing activity against human KB 3-1 cells assessed as reversal fold at 2 uM measured after 72 hrs in presence of colchicine by CCK8 assay relative to control; format: functional
HEK293 [6] = assay: Chemo-sensitizing activity against ABCG2-overexpressing human HEK293/482R cells assessed as reversal fold at 5 uM measured after 72 hrs in presence of mitoxatrone by CCK8 assay relative to control; format: functional
KB 3-1 [7] = assay: Chemo-sensitizing activity against human KB 3-1 cells assessed as reversal fold at 2 uM measured after 72 hrs in presence of paclitaxel by CCK8 assay relative to control; format: functional
NCI/ADR-RES [8] = assay: Chemo-sensitizing activity against ABCB1-overexpressing human NCI/ADR-RES cells assessed as reversal fold at 2 uM measured after 72 hrs in presence of vincristine by CCK8 assay relative to control; format: functional
NCI-H460 [9] = assay: Chemo-sensitizing activity against human NCI-H460 cells assessed as reversal fold at 1 uM measured after 72 hrs in presence of mitoxantrone by CCK8 assay relative to control; format: functional
NCI-H460 [10] = assay: Chemo-sensitizing activity against mitoxantrone-selected ABCG2-overexpressing human NCI-H460/MX20 cells assessed as reversal fold at 2 uM measured after 72 hrs in presence of mitoxantrone by CCK8 assay relative to control; format: functional
HEK293 [11] = assay: Chemo-sensitizing activity against human HEK293 cells assessed as reversal fold at 1 uM measured after 72 hrs in presence of paclitaxel by CCK8 assay relative to control; format: functional
NCI-H460 [12] = assay: Chemo-sensitizing activity against human NCI-H460 cells assessed as reversal fold at 2 uM measured after 72 hrs in presence of mitoxantrone by CCK8 assay relative to control; format: functional
KB-V1 [13] = assay: Chemo-sensitizing activity against ABCB1-overexpressing human KB-V1 cells assessed as reversal fold at 2 uM measured after 72 hrs in presence of vincristine by CCK8 assay relative to control; format: functional
OVCAR-8 [14] = assay: Chemo-sensitizing activity against human OVCAR-8 cells assessed as reversal fold at 2 uM measured after 72 hrs in presence of vincristine by CCK8 assay relative to control; format: functional
NCI/ADR-RES [15] = assay: Chemo-sensitizing activity against ABCB1-overexpressing human NCI/ADR-RES cells assessed as reversal fold at 5 uM measured after 72 hrs in presence of paclitaxel by CCK8 assay relative to control; format: functional
KB-V1 [16] = assay: Chemo-sensitizing activity against ABCB1-overexpressing human KB-V1 cells assessed as reversal fold at 1 uM measured after 72 hrs in presence of paclitaxel by CCK8 assay relative to control; format: functional
ABCG2 [17] = assay: Resistance factor, ratio of IC50 for ABCG2-overexpressing human HEK293/482R cells to IC50 for human HEK293 cells; format: ADME; conditions: read-out: Ratio IC50
HEK293 [18] = assay: Chemo-sensitizing activity against ABCG2-overexpressing human HEK293 cells assessed as reversal fold at 1 uM measured after 72 hrs in presence of topotecan by CCK8 assay relative to control; format: functional
NCI-H460 [19] = assay: Chemo-sensitizing activity against mitoxantrone-selected ABCG2-overexpressing human NCI-H460/MX20 cells assessed as reversal fold at 2 uM measured after 72 hrs in presence of topotecan by CCK8 assay relative to control; format: functional
HEK293 [20] = assay: Chemo-sensitizing activity against ABCG2-overexpressing human HEK293 cells assessed as reversal fold at 2 uM measured after 72 hrs in presence of topotecan by CCK8 assay relative to control; format: functional
OVCAR-8 [21] = assay: Chemo-sensitizing activity against human OVCAR-8 cells assessed as reversal fold at 2 uM measured after 72 hrs in presence of paclitaxel by CCK8 assay relative to control; format: functional
A549 = assay: Chemo-sensitizing activity against human A549 cells assessed as reversal fold at 5 uM measured after 72 hrs in presence of SN-38 by CCK8 assay relative to control; format: functional
HEK293 [22] = assay: Cytotoxicity against ABCG2-overexpressing human HEK293/482R cells assessed as reduction in cell viability measured after 72 hrs by CCK8 assay; format: ADME, cell-based; conditions: HEK293, 72 h
NCI/ADR-RES [23] = assay: Chemo-sensitizing activity against ABCB1-overexpressing human NCI/ADR-RES cells assessed as reversal fold at 5 uM measured after 72 hrs in presence of colchicine by CCK8 assay relative to control; format: functional
HEK293 [24] = assay: Chemo-sensitizing activity against ABCG2-overexpressing human HEK293/482R cells assessed as reversal fold at 2 uM measured after 72 hrs in presence of mitoxatrone by CCK8 assay relative to control; format: functional
ABCG2 [25] = assay: Resistance factor, ratio of IC50 for becatecarin-selected ABCG2-overexpressing human A549/Bec150 cells to IC50 for human A549 cells; format: ADME; conditions: read-out: Ratio IC50
KB 3-1 [26] = assay: Chemo-sensitizing activity against human KB 3-1 cells assessed as reversal fold at 5 uM measured after 72 hrs in presence of vincristine by CCK8 assay relative to control; format: functional

`C=C(C)[C@H](CC=C(C)C)Cc1c(O)cc(O)c2c1O[C@H](c1ccc(O)cc1O)CC2=O` [SOPHORAFLAVANONE G] was tested. Which “fold change (FC)” value (HEK293 [1]) did it give?
The value was 1.

And the “fold change (FC)” value (HEK293 [2])?
The value was 1.

What about the IC50 [3] of the same compound?
The IC50 was 2.12 µM.

And the “inhibition (INH)” value ([3]; human, nci-h460, 1 h, time 1 hrs)?
Its value is “Dose-dependent effect”.

And the “fold change (FC)” value (OVCAR-8 [4])?
The value was 0.8.

And the “fold change (FC)” value (KB 3-1 [5])?
The value was 1.1.

What about the “fold change (FC)” value (HEK293 [6]) of the same compound?
Its value is 5.6.

And the “fold change (FC)” value (KB 3-1 [7])?
Its value is 1.1.

And the “fold change (FC)” value (NCI/ADR-RES [8])?
Its value is 1.

And the “fold change (FC)” value (NCI-H460 [9])?
The value was 2.3.

And the “fold change (FC)” value (NCI-H460 [10])?
The value was 2.7.

What about the “fold change (FC)” value (HEK293 [11]) of the same compound?
The value was 1.1.

And the “fold change (FC)” value (NCI-H460 [12])?
The value was 2.4.

What about the “fold change (FC)” value (KB-V1 [13]) of the same compound?
Its value is 1.1.

What about the “fold change (FC)” value (OVCAR-8 [14]) of the same compound?
The value was 1.

What about the “fold change (FC)” value (NCI/ADR-RES [15]) of the same compound?
Its value is 1.4.

And the “fold change (FC)” value (KB-V1 [16])?
Its value is 0.9.

What about the selectivity ratio (ABCG2 [17]) of the same compound?
Its selectivity ratio is 1.4.

And the “fold change (FC)” value (HEK293 [18])?
Its value is 1.7.

What about the “fold change (FC)” value (NCI-H460 [19]) of the same compound?
The value was 7.2.

What about the “fold change (FC)” value (HEK293 [20]) of the same compound?
Its value is 2.3.

What about the “fold change (FC)” value (OVCAR-8 [21]) of the same compound?
Its value is 1.

And the “fold change (FC)” value (A549)?
The value was 1.2.

And the IC50 (HEK293 [22])?
The IC50 was 49.7 µM.

What about the “fold change (FC)” value (NCI/ADR-RES [23]) of the same compound?
Its value is 0.7.

What about the “fold change (FC)” value (HEK293 [24]) of the same compound?
Its value is 3.2.

What about the selectivity ratio (ABCG2 [25]) of the same compound?
The selectivity ratio was 0.8.

And the “fold change (FC)” value (KB 3-1 [26])?
Its value is 1.7.
